{"source": "patent US4939124A", "about": "“Treatment and diagnosis of dementia” (Laboratorios Serono S.A., priority 1988, dated 1990)", "key": {"[1]": {"tested_on": "controls and SDAT subjects", "assay": "Electroencephalographic monitoring during the GRF test", "assay_type": "in vivo, human", "conditions": "for EEG amplitude, sequential analysis (increase) / EEG frequency, sequential analysis (fall): 15 to 45 minutes after injection", "procedure": "(§1) Simultaneously to the performance of the GRF test, electroencephalograhic and cardiovascular monitorization of the subjects were carried out. Twenty-four hours prior to the GRF test, and 3, 12, 24 and 48 hours after testing, the DRS, MMS, BCRS, and FAST tests were performed to evaluate mental performance and behavior. Additional monitoring of GRF effects was done by global physician assessment and evaluation of the Mihara Nursing Scale (MNS). This test was developed to be used as a non-cognitive parametric indicator involving several items, including quantification of food intake, locomotion, social interaction, and complementary laboratory data.\n(§2) The results were analyzed statistically by the Student's test, analysis of variance (ANOVA) and the Mann-Whitney test using a NEC PC-9801VM2 computer."}, "Male Wistar rats": {"tested_on": "Male Wistar rats", "assay": "Locomotor activity and learning in maze paradigm (escape from 1.5 mA shock area), i.c.v. injection", "assay_type": "in vivo", "procedure": "The animals had to learn to escape from the shock area in order to avoid a continuous 1.5 mA electric shock. Experimental time --30 minutes.\nThe rats were treated intracerebroventricularly with SS-14 (1 mcg) and GRF1-44 (1 mcg) and their behavior was automatically recorded by computer using the maze paradigm shown in FIG. 1. p/t denotes pulses per time unit (minute). Locomotor activity was quantified in pulses per minute or cm^2 /min. Total inputs (I/O) in neutral position (white bars) and shock position (black bars) denote how many times the animals enter neutral and shock areas. The N/S ratio results from dividing I/O in neutral position by I/O in shock position and is interpreted as an index of learning in the 30-minute experimental period. The positional time (seconds) represents how long the animals stay in neutral (white bars) or shock (black bars) areas. N-sp and S-sp (in seconds) indicate the time-latency per movement or input in neutral (white bars) and shock (black bars) areas, respectively.\nTo clarify whether SS and GRF display at the central level the same antagonistic effect that they have at the pituitary level, the effects of these neuropeptides on several behavioral parameters have been studied using the OUCEM-86^TM (Osaka University Computerized Electronic Maze). The system is integrated by the following components: a Programmable Electronic Platform (PEP) (620×620 mm) equipped with 48 photo beam sensors (OPX-T30); a Programming Panel (PP) (Model BECM-0064) for paradigm stimulation; a Shock Generator Scrambler (SGS) (Model BSG-1065) to apply continuous or discontinuous electric current to the PEP; a Control Station (CS) (BEC 16-Bio Computer Control Station BCS-1105; Bio Medica, Ltd., Osaka) which processes inputs/outputs as an interface device to automatically computerize behavioral parameters; and a Computer System (NEC PC-9801 VM2) with 1 megabyte Random Access Memory (RAM) for data processing and experimental setting.\nMale Wistar rats (175-200 g) (N =5-8 rats/group) received intracerebroventricular (i.c.v.) injections of GRF1-44 and SS-14 over a range of 0.1 to 10 mcg. Then the rats were studied in the OUCEM under two different paradigms (e.g., open field and maze paradigms).\nThe amount of inputs (I/O) induced by SS was 103.5±29.5 (control =216.25±55.19, t=8.49, p<0.005) in the neutral area (NA) and 77.14±13.5 I/O in the shock area (SA) (control =298±40, t=1.26, n.s.). GRF generated 459.35±32.5 I/O in NA (t=18.13, p<0.005) and 340.5±63.5 I/O in SA (t=9.07, p<0.005) (FIGS. 1C,3). The NA/SA (N/S) ratios for control, SS- and GRF-treated rats were 0.72, 1.33, and 1.35, respectively (FIG. 2)."}, "[2]": {"tested_on": "SDAT patients and controls", "assay": "Mental performance and behavior after the GRF test (DRS, MMS, BCRS, MNS)", "assay_type": "in vivo, human", "conditions": "for DRS score: basal 3.5±1.75; for MMS score: basal 3.5±2.65", "procedure": "All the SDAT patients met the DSM-III criteria for primary degenerative dementia and rigorous diagnostic criteria for SDAT. […] In LOSDAT, the onset of the disease occurred after the age of 60. The degree of severity of the dementia was assessed with Hasegawa's Dementia Rating Scale (DRS) (Hasegawa K., Inoue K. \"An investigation of dementia rating scale for the elderly.\" Seishinigaku 16:965-969, 1974), Folstein's Mini-Mental State (MMS) Test (Folstein M. F., Folstein S., McHugh P. \"Mini-mental state: a practical method for grading the cognitive state of patients for the clinician.\" J. Psychiat. Res. 12:189-198, 1975) and a modified model of the Brief Cognitive Rating Scale (BCRS) and Functional Assessment Stages (FAST) of Reisberg (Reisberg B., Ferris S. H., De Leon M. J. \"Senile dementia of the Alzheimer type: Diagnosis and differential diagnostic features with special reference to functional assessment staging.\" in: Traber J., Gispen W. H. (Ed). Senile dementia of the Alzheimer type. pp 18-37, Springer-Verlag, Berlin, 1985). Concomitant pathology other than SDAT was discarded under a careful screening of the subjects with CT Scan, EEG, ECG and complementary laboratory data. Current diagnosis or history of SDM-III major affective disorder or schizophrenia as well as history of endocrine disease were criteria for exclusion. All of the control subjects were free of psychiatric and endocrine illness. All subjects included had been drug-free for a minimum of 7 days before testing.\nas §1, §2"}}, "data": [{"substance": "growth hormone releasing factor [GRF]", "values": [{"measurement": "EEG amplitude, sequential analysis (increase)", "setting": "[1]; SDAT patients", "result": "52.5±9.89", "unit": "uV"}, {"measurement": "EEG frequency, sequential analysis (fall)", "setting": "[1]; SDAT patients", "result": "7.05±0.90", "unit": "Hz"}, {"measurement": "EEG basic rhythm frequency, global evaluation after testing", "setting": "[1]; SDAT, prior to GRF test 8.08±0.67 Hz", "result": "7.46±0.53", "unit": "Hz"}, {"measurement": "EEG basic rhythm amplitude, global evaluation after testing", "setting": "[1]; SDAT, prior to GRF test 40.80±6.06 uV", "result": "43.69±5.12", "unit": "uV"}, {"measurement": "EEG amplitude, sequential analysis (increase)", "setting": "[1]; control subjects", "result": "55.60±6.40", "unit": "uV"}, {"measurement": "EEG frequency, sequential analysis (fall)", "setting": "[1]; control subjects", "result": "8.75±0.25", "unit": "Hz"}, {"measurement": "EEG basic rhythm frequency, global evaluation after testing", "setting": "[1]; controls, prior to GRF test 9.27±0.11 Hz", "result": "9.05±0.12", "unit": "Hz"}, {"measurement": "EEG basic rhythm amplitude, global evaluation after testing", "setting": "[1]; controls, prior to GRF test 47.36±3.36 uV", "result": "49.67±5.75", "unit": "uV"}, {"measurement": "locomotor activity (LA), maze paradigm", "setting": "Male Wistar rats; 1 mcg i.c.v., 30 minutes, control 17.12±5.42 pm", "result": "26.66±3.15", "unit": "pm"}, {"measurement": "NA/SA (N/S) ratio (index of learning)", "setting": "Male Wistar rats; 1 mcg i.c.v., control 0.72", "result": 1.35}, {"measurement": "amount of inputs (I/O) in the neutral area (NA)", "setting": "Male Wistar rats; 1 mcg i.c.v., control 216.25±55.19", "result": "459.35±32.5", "unit": "I/O"}, {"measurement": "amount of inputs (I/O) in the shock area (SA)", "setting": "Male Wistar rats; 1 mcg i.c.v., control 298±40", "result": "340.5±63.5", "unit": "I/O"}, {"measurement": "I/O rate and positional time in SA", "setting": "Male Wistar rats; GRF i.c.v., hyperkinetic syndrome, vs control group", "result": "significantly higher than in the control group"}, {"measurement": "learning abilities (N/S ratio as index)", "setting": "Male Wistar rats; doses of approximately 6.10×10^-10 mol (SS) and 1.98×10^-10 mol (GRF), i.c.v.", "result": "improve learning abilities"}, {"measurement": "DRS score", "setting": "[2]; 3 hr after GRF test", "result": "5.5±2.10"}, {"measurement": "MMS score", "setting": "[2]; 3 hr after GRF test", "result": "5.15±3.75"}, {"measurement": "DRS score", "setting": "[2]; 12 hr after GRF test", "result": "6.75±3.25"}, {"measurement": "MMS score", "setting": "[2]; 12 hr after GRF test", "result": "5.5±3.65"}, {"measurement": "DRS score", "setting": "[2]; 24 hr after GRF test", "result": "4.35±1.95"}, {"measurement": "MMS score", "setting": "[2]; 24 hr after GRF test", "result": "4.5±2.75"}, {"measurement": "DRS score", "setting": "[2]; 48 hr after GRF test", "result": "3.5±1.55"}, {"measurement": "MMS score", "setting": "[2]; 48 hr after GRF test", "result": "4.35±2.75"}, {"measurement": "duration of behavioral changes", "setting": "[2]; BCRS and MNS changes after GRF test", "result": "transient"}, {"measurement": "BCRS Axis 4 (orientation) affected by GRF", "setting": "[2]; after GRF test", "result": 30, "unit": "%"}, {"measurement": "BCRS Axis 7 (psychomotor) affected by GRF", "setting": "[2]; after GRF test", "result": 50, "unit": "%"}, {"measurement": "BCRS Axis 8 (mood and behavior) affected by GRF", "setting": "[2]; after GRF test", "result": 40, "unit": "%"}, {"measurement": "bulimic syndrome developed", "setting": "[2]; after GRF test", "result": 2, "unit": "patients"}, {"measurement": "appetite increased (MNS), share of subjects", "setting": "[2]; controls", "result": 30, "unit": "%"}, {"measurement": "appetite increased (MNS), share of subjects", "setting": "[2]; patients", "result": 45, "unit": "%"}, {"measurement": "social interaction improved (MNS), share of subjects", "setting": "[2]; patients", "result": 40, "unit": "%"}]}]}
